Reference: paper PMC6736568, “Discovery of Novel Anti-cryptosporidial Activities From Natural Products by in vitro High-Throughput Phenotypic Screening” (Frontiers in Microbiology, 2019)
Counter-ions that a name gives are not always drawn. Like-named read-outs stand apart in the source and are kept apart here.

Assays:
in vitro = settings: for cytotoxicity at 41 h, 10 µM: human
Cryptosporidium parvum = assay: qRT-PCR assay of the growth of C. parvum in vitro in HCT-8 host cells (primary and secondary screening, EC50); type: cell-based; settings: for Inhibition (%): primary screening at 10 uM; for % Inhibition (3.3 uM): secondary screening at 3.3 uM
[1] = primary screening at 10 uM, treated vs control
[2] = primary screening at 10 uM, from Hs18S ΔCT

Compound | Hs18S ΔCT (HCT-8 host cells (Hs18S); [1]) | Inhibition (%) (Cryptosporidium parvum) | Cytotoxicity (%) (HCT-8 host cells (Hs18S); [2]) | further results
Cc1cc(O)c2c(c1O)C(=O)c1c(O)cc(C)c(O)c1C2=O [1,4,5,8-TETRAHYDROXY-2,6-DIMETHYLANTHROQUINONE] |  |  |  | cytotoxicity at 41 h, 10 µM (in vitro): 92%; Hs18S ΔCT (HCT-8 host cells (Hs18S); human, 41 h, 10 μM): 3.65
CC1CCC23CCC4(C)C5(C)CCC6C(C)(C)C(=O)CCC6(C)C5CCC4(OC2=O)C3C1C (stereo not shown) [3-OXOURSAN (28-13)OLIDE] | 6.62 |  |  | cytotoxicity at 10 µM (in vitro): 99%
CC(=O)O[C@@H]1C[C@@]2(C)[C@H](c3ccoc3)C[C@H]3O[C@]32[C@]2(C)C(=O)C(O)=C3C(C)(C)C(=O)C=C[C@]3(C)[C@@H]12 [ANTHOTHECOL] |  |  |  | cytotoxicity at 41 h, 10 µM (in vitro): 98.9%; Hs18S ΔCT (HCT-8 host cells (Hs18S); human, 41 h, 10 μM): 6.51
C[C@@]12C(=O)OC(=O)[C@]1(C)[C@H]1CC[C@@H]2O1 [CANTHARIDIN] | 7.39 |  |  | cytotoxicity at 10 µM (in vitro): 99.4%
CC1=C(O)C(=O)C=C2C1=CC=C1[C@@]2(C)CC[C@@]2(C)[C@@H]3C[C@](C)(C(=O)O)CC[C@]3(C)CC[C@]12C [CELASTROL] | 3.82 |  |  | cytotoxicity at 10 µM (in vitro): 92.9%
C[C@@H]1O[C@@H](O[C@H]2CC[C@]3(C=O)[C@H]4CC[C@]5(C)[C@@H](C6=CC(=O)OC6)CC[C@]5(O)[C@@H]4CC[C@]3(O)C2)[C@H](O)[C@H](O)[C@H]1O [CONVALLATOXIN] | 10.84 |  |  | cytotoxicity at 10 µM (in vitro): 99.9%
C[C@H]1O[C@@H](O[C@H]2[C@@H](O)C[C@H](O[C@H]3[C@@H](O)C[C@H](O[C@H]4CC[C@@]5(C)[C@H](CC[C@@H]6[C@@H]5CC[C@]5(C)[C@@H](C7=CC(=O)OC7)CC[C@]65O)C4)O[C@@H]3C)O[C@@H]2C)C[C@H](O)[C@@H]1O [DIGITOXIN] | 13.47 |  |  | cytotoxicity at 10 µM (in vitro): 100%
C[C@H]1O[C@@H](O[C@H]2[C@@H](O)C[C@H](O[C@H]3[C@@H](O)C[C@H](O[C@H]4CC[C@@]5(C)[C@H](CC[C@@H]6[C@@H]5C[C@@H](O)[C@]5(C)[C@@H](C7=CC(=O)OC7)CC[C@]65O)C4)O[C@@H]3C)O[C@@H]2C)C[C@H](O)[C@@H]1O [DIGOXIN] | 14.32 |  |  | cytotoxicity at 10 µM (in vitro): 100%
CC(C)=CCC[C@]1(C)C=Cc2c(O)c3c(c(CC=C(C)C)c2O1)O[C@]12C(=C[C@@H]4C[C@H]1C(C)(C)O[C@@]2(C/C=C(/C)C(=O)O)C4=O)C3=O [GAMBOGIC ACID] |  |  |  | cytotoxicity at 41 h, 10 µM (in vitro): 99.9%; Hs18S ΔCT (HCT-8 host cells (Hs18S); human, 41 h, 10 μM): 10.02
COc1cc2c3cc1Oc1cc(ccc1O)C[C@@H]1c4c(cc(OC)c(O)c4Oc4ccc(cc4)C[C@@H]3N(C)CC2)CC[N+]1(C)C.Cl.O.O.O.O.O.[Cl-] [TUBOCURARINE CHLORIDE] | -0.29 | 37.53 | -22.2 | 
CC[C@H]1OC(=O)C[C@@H](O)[C@H](C)[C@@H](O[C@@H]2O[C@H](C)[C@@H](O[C@H]3C[C@@](C)(O)[C@@H](O)[C@H](C)O3)[C@H](N(C)C)[C@H]2O)[C@@H](CC=O)C[C@@H](C)C(=O)/C=C/C(C)=C/[C@@H]1CO[C@@H]1O[C@H](C)[C@@H](O)[C@@H](OC)[C@H]1OC [TYLOSIN TARTRATE] | -0.19 | 25.75 | -14.2 | 
O=c1ccn([C@@H]2O[C@H](COP(=O)([O-])OP(=O)([O-])OP(=O)([O-])O)[C@@H](O)[C@H]2O)c(=O)[nH]1.[Na+].[Na+].[Na+] [URIDINE TRIPHOSPHATE TRISODIUM] | 0.23 | 91.48 | 14.5 | % Inhibition (3.3 uM) (Cryptosporidium parvum): 17%
COC(=O)C1=CO[C@@H](O[C@@H]2O[C@H](CO)[C@@H](O)[C@H](O)[C@H]2O)[C@H]2[C@@H]1C(=O)C[C@@H]2C [VERBENALIN] | 2.45 | -4.48 | 81.7 | 
O.O=C(O)[C@@H]1[C@H]2C[C@H]3c4[nH]c5ccccc5c4CCN3C[C@@H]2CC[C@@H]1O [YOHIMBIC ACID HYDRATE] | -0.27 | -21.23 | -20.7 | 
C[C@H](CCC(=O)O)[C@H]1CC[C@H]2[C@@H]3C[C@H](O)[C@@H]4C[C@H](O)CC[C@]4(C)[C@H]3CC[C@]12C [alpha-HYDROXYDEOXYCHOLIC ACID] | -0.52 | -6.93 | -43.0 | 
ABAMECTIN (avermectin B1a shown) | 0.59 | 97.65 | 33.4 | % Inhibition (3.3 uM) (Cryptosporidium parvum): -19%
AGELASINE (stereochemistry of diterpene unknown) | 0.27 | 43.55 | 16.8 | 
AVERMECTIN A1a | 0.02 | 97.32 | 1.6 | % Inhibition (3.3 uM) (Cryptosporidium parvum): -85%
AVOCADYNOFURAN | 0.02 | -19.78 | 1.4 | 
AVOCATIN B | 0.36 | 4.87 | 21.9 | 

Compound | Hs18S ΔCT (HCT-8 host cells (Hs18S); [1]) | Inhibition (%) (Cryptosporidium parvum) | Cytotoxicity (%) (HCT-8 host cells (Hs18S); [2]) | further results
BACITRACIN | 0.02 | -21.81 | 1.4 | 
BERBAMINE HYDROCHLORIDE | -0.21 | 6.86 | -15.6 | 
BICUCULLINE(-) METHIODIDE | -0.07 | -0.49 | -4.9 | 
BLEOMYCIN (bleomycin B2 shown) | -0.22 | 52.96 | -16.8 | 
CASANTHRANOL [CASANTHRANOL [cascaroside A shown]] |  | 50.17 |  | Cytotoxicity (%) (HCT-8 host cells (Hs18S); 10 µM): 15.4%
COLISTIN SULFATE | 0.01 | 33.43 | 0.4 | 
CYANOCOBALAMIN | -0.32 | 16.98 | -24.5 | 
DEGUELIN(-) | 0.60 | 45.04 | 34.2 | 
GARLICIN |  | 4.93 |  | Cytotoxicity (%) (HCT-8 host cells (Hs18S); 10 µM): -30.8%
IVERMECTIN | -0.05 | 78.97 | -3.4 | % Inhibition (3.3 uM) (Cryptosporidium parvum): 6%
KHAYANTHONE | -0.01 | -5.94 | -0.3 | 
LYSINE (L) HYDROCHLORIDE | -0.15 | -22.55 | -11.0 | 
OMEGA-3-ACID ESTERS (EPA shown) |  | 4.36 |  | Cytotoxicity (%) (HCT-8 host cells (Hs18S); 10 µM): -17.4%
PHYTOL | -0.42 | -12.94 | -33.6 | 
POLYMYXIN B SULFATE | -0.20 | -11.86 | -15.1 | 
POMIFERIN TRIMETHYL ETHER | 0.17 | -34.33 | 11.4 | 
SPIRAMYCIN |  | -12.26 |  | Cytotoxicity (%) (HCT-8 host cells (Hs18S); 10 µM): -12.2%
STROPH[…] LACTONE ACETATE | 2.37 | 96.28 | 80.7 | % Inhibition (3.3 uM) (Cryptosporidium parvum): 19%
TANNIC ACID | 0.27 | -22.61 | 17.0 | 
VERATRINE SULFATE |  | 25.98 |  | Hs18S ΔCT (HCT-8 host cells (Hs18S)): -0.06; Cytotoxicity (%) (HCT-8 host cells (Hs18S); 10 µM): -4.3
